We go through two compounds from patent publication EP3409293B1, “COMPLEXES COMPRISING PHOSPHOLIPIDS, WATER-SOLUBLE DEXTRIN FIBERS AND ANTIOXIDANT ACTIVE PRINCIPLES OF NATURAL ORIGIN, THEIR PREPARATION AND USE IN ORAL FORMULATIONS” (UNIVERSITA' DEGLI STUDI DI CAGLIARI, priority 2017, dated 2018).

The structures appear in SMILES notation.

Data set [1] in a line: Ascorbic acid release from vesicles by dialysis at pH 2 and pH 7. The format is physicochemical. As to conditions: 37 °C. How it is done: The velocity (concentration as a function of time) at which the ascorbic acid is released from the vesicles as a function of pH (2 and 7) was measured as well. The dispersions (1 mL) were transferred into dialysis tubes Spectra-Por (300 kDa Float-A-Lyzer G2) immersed in 50 mL of a solution of HCl 0.1 M (pH 2), or in 50 mL of PBS (Phosphate Buffered Saline at pH 7), and maintained at 37 °C under constant stirring for 2 hours at pH 2 and for 6 hours at pH 7. A percentage of the sample was removed at predefined time intervals, and the ascorbic acid concentration was measured with a UV spectrophotometer. […] As aforementioned, release studies were carried out in order to evaluate the ability of the lamellar vesicles to retain and protect the ascorbic acid during the passage through the stomach (pH 2) and/or to retain/protect the same at the neutral pH of the intestine. […] The nutriosomes of the present invention, with or without the additional polymer HPMC, release a quantity of less than 20% after 20 minutes; subsequently, the HPMC-nutriosomes release the lowest percentage, ~40%, after 120 minutes.

Data set [2] can be described thus: Plasmatic concentration of curcumin in rats after gavage. The format is in vivo, WISTAR male rats. The conditions noted are these: 2 mL containing 20 mg/mL of curcumin, during the 8 hours of study. On the procedure:
Curcumin in dispersion or carried in liposomes or nutriosomes was administered to rats in vivo, and both the local accumulation and the plasmatic concentration were measured. The experiments were conducted by using WISTAR male rats (8-12 weeks of age and 230-250 g). The animals were treated in accordance with the European Union regulations concerning the use of laboratory animals. The protocols have been approved by the Istitutional Animal Care and Use Committee of the University of Valencia (Spain). Throughout the length of the study, the animals were kept in a thermally conditioned chamber, with a light/dark cycle of 12 hours and free access to water and food. […] In order to measure the quantity of curcumin accumulated in the intestine, the rats were sacrificed 4 hours after administration, and the gastrointestinal apparatus was removed and divided into the different segments. […]
In order to quantify a plasmatic concentration of curcumin when administering the aqueous dispersion, it was necessary to double the concentration; therefore, 2 mL of dispersion were administered, containing 20 mg/mL of curcumin instead of 10 mg/mL as in liposomes and nutriosomes (Figure 10). Notwithstanding this, the measured plasmatic concentration is always very low, i.e. ∼10 ng/mL during the 8 hours of study. […]

For a further data set, the system named is Caco2. Kind of data set: Biocompatibility on Caco2 cells, 48 hours, MTT (curcumin, EU-nutriosomes). The format is cell-based, human. The conditions noted are these: Caco2, 48 hours, higher dilutions; % of untreated cells. How it is done: The biocompatibility of curcumin in dispersion or carried in liposomes or EU-nutriosomes was measured by treating intestinal cells (Caco2) with the vesicular formulations at different dilutions for 48 hours. At the end of this incubation period, cell viability was measured by MTT test, and was expressed as a percentage with respect to the untreated cells (negative control). The results are shown in the annexed Figure 13. At the lowest dilution (10 µg/mL of curcumin), viability is ~75%, regardless of the tested sample; at higher dilutions, the viability of the cells treated with curcumin in dispersion remains around 80%, while that of the cells treated with the nutriosomes is greater (~105%) and equal to that of the reference liposomes, which are generally known to be a non-toxic and biocompatible carrier. Probably all vesicular systems are capable of modulating the curcumin uptake within the cells, thereby reducing any toxic effect thereof. By using a non-toxic dilution (1 µg/mL of curcumin), we studied the ability of the formulations to promote the antioxidizing efficacy of the polyphenol. As shown in the previous example, the cells were stressed with hydrogen peroxide and simultaneously treated with curcumin in dispersion or incorporated in the vesicles (see annexed Figure 14). […]

In another data set the test system is Caco2 cells. Kind of data set: Protection of Caco2 cells against hydrogen peroxide oxidative damage (MTT), curcumin formulations. Type of data set: cell-based, human. The conditions noted are these: Caco2 cells treated with hydrogen peroxide and simultaneously with curcumin formulation, 4 hours; % of untreated cells. How it is done: A study was carried out to evaluate the in vitro ability of the nutriosomes to improve the protective efficacy of curcumin against the oxidative damage induced in Caco2 cells by hydrogen peroxide (Figure 8). The cells were sown in 96-well plates and incubated at 37 °C in an atmosphere with 5% CO2 for the period necessary for achieving confluence. As a negative control, cells maintained in optimal growth conditions and not treated either with hydrogen peroxide or with curcumin were used; as a positive control, cells maintained in optimal growth conditions and treated with hydrogen peroxide, but not treated with curcumin, were used. The other cells were treated with hydrogen peroxide and, simultaneously, with curcumin in aqueous dispersion or carried in liposomes, nutriosomes and HPMC-nutriosomes. The cells were incubated for 4 hours, washed with PBS, and then cell survival was measured by means of a colorimetric test with tetrazolium salt, 3-(4,5-dimethylthiazol-2-yl)-2,5-diphenyltetrazolium bromide (MTT) (see annexed Figure 8). Cell viability was calculated as a percentage of the viability of the untreated cells (negative control).

Take `O=C1O[C@H]([C@@H](O)CO)C(O)=C1O` [aqueous solution, ascorbic acid]: the ascorbic acid released entry is “approximately 80%” in data set [1] (pH 2 (HCl 0.1 M), after 20 minutes) and “about 80%” in data set [1] (pH 7 (PBS), after 1 hour).

On to `COc1cc(C=CC(=O)CC(=O)C=Cc2ccc(O)c(OC)c2)ccc1O` [curcumin in aqueous dispersion, 1,7-Bis(4-hydroxy-3-methoxyphenyl)hepta-1,6-diene-3,5-dione], for which, in data set [2], the “plasmatic concentration of curcumin” value is ~10 ng/mL. Besides, the cell viability result is on record as “around 80%” with Caco2 and ~ 69% in the data set with Caco2 cells.
